In US8952024B2, “Herbicidal pyrimidone derivatives” (E I du Pont de Nemours and Company, priority 2009, dated 2015):

Tests used:
Format in all cases: in vivo
[1] = tested on: umbrella sedge (Cyperus difformis); assay: Test B flooded paddy test; conditions: for Plant response rating, Flood, Sedge, Umbrella: 250 g ai/ha, flooded paddy test, visual rating on 0 to 100 scale (0 no effect, 100 complete control) after 13 to 15 days; for Plant response rating, Sedge, Umbrella: Flood (flooded paddy test), 13 to 15 days
In short: (§1)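 Seedlings reaching 2 leaves are flooded 3 cm deep; test material is delivered to that water, which stays at the same depth. Plants remain in a greenhouse 13–15 days and are then scored by eye versus controls from 0 to 100.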

[2] = tested on: ducksalad (Heteranthera limosa); assay: Test B flooded paddy test; conditions: for Plant response rating, Flood, Ducksalad: 250 g ai/ha, flooded paddy test, visual rating on 0 to 100 scale (0 no effect, 100 complete control) after 13 to 15 days; for Plant response rating, Ducksalad: Flood (flooded paddy test), 13 to 15 days
In short: as §1

rice (Oryza sativa) = assay: Test B flooded paddy test; conditions: for Plant response rating, Flood, Rice: 250 g ai/ha, flooded paddy test, visual rating on 0 to 100 scale (0 no effect, 100 complete control) after 13 to 15 days; for Plant response rating, Rice: Flood (flooded paddy test), 13 to 15 days
In short: as §1

[3] = tested on: barnyardgrass (Echinochloa crus-galli); assay: Test B flooded paddy test; conditions: for Plant response rating, Flood, Barnyardgrass: 250 g ai/ha, flooded paddy test, visual rating on 0 to 100 scale (0 no effect, 100 complete control) after 13 to 15 days; for Plant response rating, Barnyardgrass: Flood (flooded paddy test), 13 to 15 days
In short: as §1

[4] = tested on: large crabgrass (Digitaria sanguinalis); assay: Test A pre-/postemergence plant response
In short: (§2)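 Both pre- and postemergence treatments are applied simultaneously, using chemicals formulated in a non-phytotoxic solvent mixture with surfactant. Postemergence plants are 2–10 cm high with one to two leaves. After approximately ten days in a greenhouse, injury is scored visually from 0 (none) to 100 (complete control) relative to untreated plants.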

[5] = tested on: velvetleaf (Abutilon theophrasti); assay: Test A pre-/postemergence plant response
In short: as §2

corn (Zea mays) = assay: Test A pre-/postemergence plant response
In short: as §2

[6] = tested on: wheat (Triticum aestivum); assay: Test A pre-/postemergence plant response
In short: as §2

[7] = tested on: barnyardgrass (Echinochloa crus-galli); assay: Test A pre-/postemergence plant response
In short: as §2

[8] = tested on: morningglory (Ipomoea spp.); assay: Test A pre-/postemergence plant response
In short: as §2

[9] = tested on: giant foxtail (Setaria faberii); assay: Test A pre-/postemergence plant response
In short: as §2

[10] = tested on: pigweed (Amaranthus retroflexus); assay: Test A pre-/postemergence plant response
In short: as §2

[11] = 31 g ai/ha, scale of 0 to 100 where 0 is no effect and 100 is complete control
[12] = 62 g ai/ha, scale of 0 to 100 where 0 is no effect and 100 is complete control
[13] = 125 g ai/ha, scale 0 to 100, 0 is no effect, 100 is complete control
[14] = Postemergence, 125 g ai/ha, visual injury, 0 to 100 scale (0 no effect, 100 complete control), approx. ten days
[15] = Postemergence, 500 g ai/ha, 0 to 100 scale, 0 = no effect, 100 = complete control, approx. ten days
[16] = Preemergence, 125 g ai/ha, 0 to 100 scale, 0 = no effect, 100 = complete control
[17] = Preemergence, 500 g ai/ha, visual injury, 0 to 100 scale (0 no effect, 100 complete control), approx. ten days
[18] = Flood, 31 g ai/ha, scale 0 to 100 (0 no effect, 100 complete control)
[19] = Postemergence, 125 g ai/ha, 0 to 100 scale where 0 is no effect and 100 is complete control
[20] = Postemergence, 500 g ai/ha, visual injury, 0 to 100 scale (0 no effect, 100 complete control), approx. ten days
[21] = Preemergence, 500 g ai/ha, 0 to 100 scale, 0 = no effect, 100 = complete control

`O=C1CCCC(O)=C1C(=O)c1cnc(-c2ccccc2)n(-c2ccc(F)cc2F)c1=O` [Compound 57] was tested, and the “Plant response rating, Flood, Sedge, Umbrella” value [1] was 75, the “Plant response rating, Sedge, Umbrella” value [1, 11] was 0 and the “Plant response rating, Sedge, Umbrella” value [1, 12] was 0. The “Plant response rating, Sedge, Umbrella” value [1, 13] was 50, the “Plant response rating, Flood, Ducksalad” value [2] was 60 and the “Plant response rating, Ducksalad” value [2, 11] was 0. For the same compound, the “Plant response rating, Ducksalad” value [2, 12] was 0, the “Plant response rating, Ducksalad” value [2, 13] was 40 and the “Plant response rating, Flood, Rice” value (rice (Oryza sativa)) was 25. The “Plant response rating, Rice” value (rice (Oryza sativa); [11]) was 0, the “Plant response rating, Rice” value (rice (Oryza sativa); [12]) was 0 and the “Plant response rating, Rice” value (rice (Oryza sativa); [13]) was 15. The “Plant response rating, Flood, Barnyardgrass” value [3] was 25, the “Plant response rating, Barnyardgrass” value [3, 11] was 0 and the “Plant response rating, Barnyardgrass” value [3, 12] was 0. For the same compound, the “Plant response rating, Barnyardgrass” value [3, 13] was 20, the “Crabgrass, Large plant response rating” value [4, 14] was 80 and the “Plant response rating, Crabgrass, Large” value [4, 15] was 90. The “Plant response rating, Crabgrass, Large” value [4, 16] was 90, the “Plant response rating, Crabgrass, Large” value [4, 17] was 100 and the “Velvetleaf plant response rating” value [5, 14] was 100. The “Plant response rating, Velvetleaf” value [5, 15] was 100, the “Plant response rating, Velvetleaf” value [5, 16] was 80 and the “Plant response rating, Velvetleaf” value [5, 17] was 100. The “Corn plant response rating” value (corn (Zea mays); [14]) was 0, the “Plant response rating, Corn” value (corn (Zea mays); [15]) was 40 and the “Plant response rating, Corn” value (corn (Zea mays); [16]) was 0. For the same compound, the “Plant response rating, Corn” value (corn (Zea mays); [17]) was 0, the “Wheat plant response rating” value [6, 14] was 0 and the “Plant response rating, Wheat” value [6, 15] was 10. The “Plant response rating, Wheat” value [6, 16] was 0, the “Plant response rating, Wheat” value [6, 17] was 0 and the “Barnyardgrass plant response rating” value [7, 14] was 70. For the same compound, the “Plant response rating, Barnyardgrass” value [7, 15] was 90, the “Plant response rating, Barnyardgrass” value [7, 16] was 40 and the “Plant response rating, Barnyardgrass” value [7, 17] was 90. For the same compound, the “Morningglory plant response rating” value [8, 14] was 50, the “Plant response rating, Morningglory” value [8, 15] was 60 and the “Plant response rating, Morningglory” value [8, 16] was 20. For the same compound, the “Plant response rating, Morningglory” value [8, 17] was 80, the “Foxtail, Giant plant response rating” value [9, 14] was 80 and the “Plant response rating, Foxtail, Giant” value [9, 15] was 90. The “Plant response rating, Foxtail, Giant” value [9, 16] was 70, the “Plant response rating, Foxtail, Giant” value [9, 17] was 90 and the “Pigweed plant response rating” value [10, 14] was 90. The “Plant response rating, Pigweed” value [10, 15] was 100, the “Plant response rating, Pigweed” value [10, 16] was 90 and the “Plant response rating, Pigweed” value [10, 17] was 100.
With `Cc1cccc(-c2ncc(C(=O)C3=C(O)CCCC3=O)c(=O)n2-c2ccccc2C)c1` [Compound 210] the “Plant response rating, Flood, Sedge, Umbrella” value [1] was 80, the “Plant response rating, Sedge, Umbrella” value [1, 12] was 75 and the “Plant response rating, Sedge, Umbrella” value [1, 13] was 75. The “Sedge, Umbrella plant response rating” value [1, 18] was 50, the “Plant response rating, Flood, Ducksalad” value [2] was 90 and the “Plant response rating, Ducksalad” value [2, 12] was 85. The “Plant response rating, Ducksalad” value [2, 13] was 90, the “Ducksalad plant response rating” value [2, 18] was 75 and the “Plant response rating, Flood, Rice” value (rice (Oryza sativa)) was 25. The “Plant response rating, Rice” value (rice (Oryza sativa); [12]) was 0, the “Plant response rating, Rice” value (rice (Oryza sativa); [13]) was 20 and the “Rice plant response rating” value (rice (Oryza sativa); [18]) was 0. The “Plant response rating, Flood, Barnyardgrass” value [3] was 40, the “Plant response rating, Barnyardgrass” value [3, 12] was 0 and the “Plant response rating, Barnyardgrass” value [3, 13] was 20. The “Barnyardgrass plant response rating” value [3, 18] was 0, the “Plant response rating, Crabgrass, Large” value [4, 19] was 10 and the “Crabgrass, Large plant response rating” value [4, 20] was 30. For the same compound, the “Plant response rating, Crabgrass, Large” value [4, 16] was 10, the “Plant response rating, Crabgrass, Large” value [4, 21] was 50 and the “Plant response rating, Velvetleaf” value [5, 19] was 70. For the same compound, the “Velvetleaf plant response rating” value [5, 20] was 70, the “Plant response rating, Velvetleaf” value [5, 16] was 40 and the “Plant response rating, Velvetleaf” value [5, 21] was 60. For the same compound, the “Plant response rating, Corn” value (corn (Zea mays); [19]) was 0, the “Corn plant response rating” value (corn (Zea mays); [20]) was 0 and the “Plant response rating, Corn” value (corn (Zea mays); [16]) was 0. For the same compound, the “Plant response rating, Corn” value (corn (Zea mays); [21]) was 0, the “Plant response rating, Wheat” value [6, 19] was 0 and the “Wheat plant response rating” value [6, 20] was 10. The “Plant response rating, Wheat” value [6, 16] was 0, the “Plant response rating, Wheat” value [6, 21] was 0 and the “Plant response rating, Barnyardgrass” value [7, 19] was 40. The “Barnyardgrass plant response rating” value [7, 20] was 90, the “Plant response rating, Barnyardgrass” value [7, 16] was 10 and the “Plant response rating, Barnyardgrass” value [7, 21] was 70. For the same compound, the “Plant response rating, Morningglory” value [8, 19] was 50, the “Morningglory plant response rating” value [8, 20] was 100 and the “Plant response rating, Morningglory” value [8, 16] was 0. The “Plant response rating, Morningglory” value [8, 21] was 50, the “Plant response rating, Foxtail, Giant” value [9, 19] was 10 and the “Foxtail, Giant plant response rating” value [9, 20] was 70. For the same compound, the “Plant response rating, Foxtail, Giant” value [9, 16] was 20, the “Plant response rating, Foxtail, Giant” value [9, 21] was 90 and the “Plant response rating, Pigweed” value [10, 19] was 90. For the same compound, the “Pigweed plant response rating” value [10, 20] was 100, the “Plant response rating, Pigweed” value [10, 16] was 60 and the “Plant response rating, Pigweed” value [10, 21] was 100.
